Drawing on US8367709B2, “Dipeptide analogs as coagulation factor inhibitors” (priority 2007, dated 2013), this text covers Ki for 15 molecules.

The term Ki denotes a measure of affinity in units of concentration, obtained from inhibition or displacement.

Where a name gives a salt, the structure may show the parent alone.

For the first assay, the target named is T1, purified human Factor XIa (Homo sapiens, UniProt P03951).
T1 construct: purchased Haematologic Technologies
T1 sequence (P03951 19-387): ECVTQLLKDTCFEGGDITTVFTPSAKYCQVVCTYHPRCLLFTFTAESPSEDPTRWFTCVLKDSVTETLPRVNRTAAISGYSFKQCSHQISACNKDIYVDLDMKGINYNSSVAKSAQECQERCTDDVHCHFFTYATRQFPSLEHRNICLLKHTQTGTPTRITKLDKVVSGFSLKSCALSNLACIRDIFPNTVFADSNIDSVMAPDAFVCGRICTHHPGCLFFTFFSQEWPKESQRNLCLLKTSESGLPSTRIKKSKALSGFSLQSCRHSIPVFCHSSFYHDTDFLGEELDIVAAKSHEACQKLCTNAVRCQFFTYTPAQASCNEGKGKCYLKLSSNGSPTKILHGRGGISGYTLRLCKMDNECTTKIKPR
T1 sequence (P03951 388-625): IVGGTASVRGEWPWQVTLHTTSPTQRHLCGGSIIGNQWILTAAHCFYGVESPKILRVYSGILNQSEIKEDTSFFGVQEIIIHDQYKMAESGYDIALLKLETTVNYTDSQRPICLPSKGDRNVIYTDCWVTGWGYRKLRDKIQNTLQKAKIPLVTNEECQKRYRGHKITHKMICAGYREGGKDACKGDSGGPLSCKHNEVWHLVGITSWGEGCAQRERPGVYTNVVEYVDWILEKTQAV
The assay is described as follows: Factor XIa assay (chromogenic substrate S-2366 hydrolysis, Ki). The assay is classed as biochemical.
Details: not given
The method, then:
The effectiveness of compounds of the present invention as inhibitors of the coagulation factors XIa, VIIa, IXa, Xa, XIIa, plasma kallikrein or thrombin, can be determined using a relevant purified serine protease, respectively, and an appropriate synthetic substrate. The rate of hydrolysis of the chromogenic or fluorogenic substrate by the relevant serine protease was measured both in the absence and presence of compounds of the present invention. […] A decrease in the rate of absorbance or fluorescence change in the presence of inhibitor is indicative of enzyme inhibition. Such methods are known to one skilled in the art. The results of this assay are expressed as the inhibitory constant, Ki.
Values of Ki were determined by allowing the protease to react with the substrate in the presence of the inhibitor. Reactions were allowed to go for periods of 20-180 minutes (depending on the protease) and the velocities (rate of absorbance or fluorescence change versus time) were measured. The following relationships were used to calculate Ki values:
vs/vo=A+((B−A)/1+((IC50/(I)^n))) and […]
With `COC(=O)c1ccc(NC(=O)[C@H](Cc2cc(C)n(C)n2)NC(=O)/C=C/c2c(-n3cnnn3)ccc(Cl)c2F)nc1` [Example 216, (S,E)-methyl 6-(2-(3-(3-chloro-2-fluoro-6-(1H-tetrazol-1-yl)phenyl)acrylamido)-3-(1,5-dimethyl-1H-pyrazol-3-yl)propanamido)nicotinate, TFA salt], the affinity, expressed as Ki, was 65.9 nM.
The same measure, in the same setting: to `CS(=O)(=O)CC[C@H](NC(=O)/C=C/c1cc(Cl)ccc1-n1cnnn1)C(=O)Nc1ccc(C(=O)O)cc1` [Example 231, (S,E)-4-(2-(3-(5-chloro-2-(1H-tetrazol-1-yl)phenyl)acrylamido)-4-(methylsulfonyl)butanamido)benzoic acid] belongs 44.4 nM.
`O=C(/C=C/c1cc(Cl)ccc1-n1cnnn1)NC(Cc1cnc2ccccc2n1)C(=O)Nc1ccc(C(=O)O)cc1` (stereo not drawn) [Example 251, (E)-4-(2-(3-(5-chloro-2-(1H-tetrazol-1-yl)phenyl)acrylamido)-3-(quinoxalin-2-yl)propanamido)benzoic acid] had an inhibition constant Ki of 16.2 nM.
On the same count and under the same terms, to `O=C(/C=C/c1cc(Cl)ccc1-n1cnnn1)N[C@@H](CC(=O)NCc1cnccn1)C(=O)Nc1ccc(C(=O)O)cc1` [Example 252, (S,E)-4-(2-(3-(5-chloro-2-(1H-tetrazol-1-yl)phenyl)acrylamido)-4-oxo-4-(pyrazin-2-ylmethylamino)butanamido)benzoic acid] belongs 16.2 nM.
Same read-out and setting: to `N/C(=N/[N+](=O)[O-])NCCC[C@H](NC(=O)/C=C/c1cc(Cl)ccc1-n1cnnn1)C(=O)Nc1ccc(C(=O)O)cc1` [Example 253, 4-((S)-2-((E)-3-(5-chloro-2-(1H-tetrazol-1-yl)phenyl)acrylamido)-5-((Z)-2-nitroguanidino)pentanamido)benzoic acid] belongs 19.3 nM; to `COC[C@H](NC(=O)/C=C/c1cc(Cl)ccc1-n1cnnn1)C(=O)Nc1ccc(C(=O)O)cc1` [Example 254, (S,E)-4-(2-(3-(5-chloro-2-(1H-tetrazol-1-yl)phenyl)acrylamido)-3-methoxypropanamido)benzoic acid], 3630 nM; to `O=C(/C=C/c1cc(Cl)ccc1-n1cnnn1)N[C@H](C(=O)Nc1ccc(C(=O)O)cc1)[C@@H]1CCCNC1` [Example 262, 4-((S)-2-((E)-3-(5-chloro-2-(1H-tetrazol-1-yl)phenyl)acrylamido)-2-((R)-piperidin-3-yl)acetamido)benzoic acid], 2330 nM.
In turn, `CC(C)(C)SC[C@H](NC(=O)/C=C/c1cc(Cl)ccc1-n1cnnn1)C(=O)Nc1ccc(C(=O)O)cc1` [Example 282, (R,E)-4-(3-(tert-butylthio)-2-(3-(5-chloro-2-(1H-tetrazol-1-yl)phenyl)acrylamido)propanamido)benzoic acid] returned a Ki of 32.5 nM.
The same measure, in the same setting: to `O=C(/C=C/c1cc(Cl)ccc1-n1cnnn1)N[C@@H](CC(=O)NCCN1CCOCC1)C(=O)Nc1ccc(C(=O)O)cc1` [Example 286, (S,E)-4-(2-(3-(5-chloro-2-(1H-tetrazol-1-yl)phenyl)acrylamido)-4-(2-morpholinoethylamino)-4-oxobutanamido)benzoic acid, Trifluoroacetic acid salt] belongs 481 nM.
On to `O=C(N[C@@H](Cc1ccccc1)C(=O)NCCc1cc(Cl)ccc1-n1cnnn1)c1cn2cccnc2n1` [Example 295], for which the affinity, expressed as Ki, was 9260 nM.
Still for that read-out and setting: with `O=C(/C=C/c1cc(Cl)ccc1-n1cnnn1)N[C@@H](CC1CCN(C(=O)c2ccccc2)C1)C(=O)Nc1ccc(C(=O)O)cc1` (stereo partly drawn) [Example 307, 4-((2S)-3-(1-benzoylpyrrolidin-3-yl)-2-((E)-3-(5-chloro-2-(1H-tetrazol-1-yl)phenyl)acrylamido)propanamido)benzoic acid] the figure was 12.4 nM.

The assay is the same for the next values; noted with them: purified human Factor XIa 75-200 pM, substrate S-2366, 50 mM HEPES pH 7.4; read-out: Factor XIa Ki.
For the molecule `O=C(/C=C/c1cc(Cl)ccc1-n1cnnn1)N[C@@H](Cc1c[nH]c2ccccc12)C(=O)Nc1ccc(C(=O)O)cc1` [Example 238, (S,E)-4-(2-(3-(5-chloro-2-(1H-tetrazol-1-yl)phenyl)acrylamido)-3-(1H-indol-3-yl)propanamido)benzoic acid, TFA salt], the Ki was 4.66 nM.
As to `O=C(/C=C/c1cc(Cl)ccc1-n1cnnn1)N[C@@H](Cc1cccs1)C(=O)Nc1ccc(C(=O)O)cc1` [Example 248, (S,E)-4-(2-(3-(5-chloro-2-(1H-tetrazol-1-yl)phenyl)acrylamido)-3-(thiophen-2-yl)propanamido)benzoic acid], the Ki was determined as 2.41 nM.
Same read-out and setting: to `O=C(/C=C/c1cc(Cl)ccc1-n1cnnn1)N[C@@H](Cc1cccnc1)C(=O)Nc1ccc(C(=O)O)cc1` [Example 249, (S,E)-4-(2-(3-(5-chloro-2-(1H-tetrazol-1-yl)phenyl)acrylamido)-3-(pyridin-3-yl)propanamido)benzoic acid] belongs 6.09 nM; to “(4-{(S)-2-[(E)-3-(5-chloro-2-tetrazol-1-yl-phenyl)-acryloylamino]-3-phenyl-propionylamino}-cyclohexyl)-carbamic acid methyl ester [Example 11]”, 4440 nM.
